Ends that are not written are not given here.
Assays:
T cell 3DT-52.5 = experiment: IL-2 production by T cell 3DT-52.5 in response to LKD8 cells plus synthetic peptide; format: cell-based, mouse; settings: synthetic peptide 100 ug/ml, D^d expressing Tap deficient cell line, twenty four hours
Text: FIG. 14B is a graph showing IL-2 produced by T cell […] in response to (1) P815 plus a bound unknown self-peptide and 2) LKD8, alone, or in the presence of the library derived peptide, TGPTRWCRL (SEQ ID NO:50), or a peptide derived from the spin protein, AGATRWCRL (SEQ ID NO:51).
DNA from a number of these clones was sequenced through the region encoding the peptide to determine the peptide sequence. Only one sequence was found, a 9mer, TGPTRWCRL (represented by SEQ ID NO:50; the underlined amino acids are in the positions varied in the library). […] A search of the mouse genome for proteins that contained peptides similar to the library peptide yielded a very similar sequence (AGATRWCRL; SEQ ID NO:51) intheprotein, spin(GenBank Accession No. BC011467). The library peptide and the spin peptide were synthesized and tested with a D^d expressing, Tap deficient, cell line for recognition by the original T cell (FIG. 14B). […] In the case of LKD8 the cell line was tested alone or in the presence of 100 ug/ml of the library derived peptide, TGPTRWCRL (SEQ ID NO:50), or a peptide derived from the spin protein, AGATRWCRL (SEQ ID NO:51). After twenty four hours the culture supernatants were assayed for IL-2. Without an added peptide, the D^d on this cell line was not recognized because the Tap deficiency prevents loading of endogenous peptides.

YAe-62 TCR = experiment: Binding of fluorescent soluble YAe-62 αβTCR to SF9 cells displaying IA^b-peptide (flow cytometry); set-up: species or system mouse; settings: for YAe-62 TCR Binding (% of p3K): IA^b-peptide displayed on baculovirus-infected SF9 cells, fluorescent soluble αβTCR; for binding of YAe-62 αβTCR to IA^b-peptide complex (in words): insect cells displaying IA^b-peptide
Procedure: (§1) Next fluorescent, soluble αβTCR reagents were prepared for use in flow cytometry to detect insect cells displaying the appropriate MHCII/peptide combination. Fluorescent multivalent versions of the soluble αβTCR's of B3K-06 and YAe-62 bound to insect cells displaying the IA^b-p3K, but not a control MHCII-peptide combination (data not shown).
(§2) Insect cells displaying IA^b-p3K bound the αβTCR reagents very heterogeneously, probably due to heterogeneous expression of IA^b-p3K due to variations in the multiplicity of infection and the lack of synchrony in viral infection and expression. […] In this case, there was a direct correlation between the amount of surface IA^b-p3K expressed by an individual insect cell and the amount of αβTCR bound with cells bearing a particular level of IA^b-p3K binding the αβTCRs uniformly (data not shown). Therefore, comparing the two types of staining gave a useful tool to evaluate the relation between peptide sequence and the strength of αβTCR binding (see below).
(§3) A large number of SF9 insect cells were infected at an MOI of about one with baculovirus carrying the IA^b peptide library. After 3-4 days the cells were analyzed with fluorescent B3K-06 or YAe-62 soluble αβTCR, as described above. Fluorescent cells were sorted and cultured with fresh uninfected SF9 cells to create new infected cells for analysis and an enriched viral stock. This process was repeated 3 to 4 times. In each case, when no clear fluorescent population was apparent, the brightest 1% of the infected cells was sorted. In later rounds, the majority of the cells in a clearly distinguishable fluorescent population were sorted. Infected cells binding the B3K-06 αβTCR were apparent only after two rounds of enrichment but eventually yielded a population with uniform binding (data not shown). Infected cells that bound the YAe-62 αβTCR were detectable even with the initial library of viruses and enriched rapidly to yield a population with more heterogeneous levels of binding to the receptor (data not shown).
(§4) At the time of the final enrichment, single infected cells binding each of αβTCRs were sorted into individual wells of 96 well culture plates containing fresh SF9 cells in order to prepare clonal viral stocks. These stocks were used to infect fresh SF9 cells which were reanalyzed for binding to the appropriate αβTCR as described above. […] The majority of PCR fragments yielded a single unambiguous peptide sequence. These viruses were used to infect SF9 cells that expressed mouse ICAM and B7.1. The infected cells were used as APCs for either the B3K-06 or YAe-62 hybridoma with IL-2 production being a measure of IA^b-peptide recognition. Viruses expressing IA^b-peptide combinations that neither bound to the αβTCR nor stimulated the T cell hybridomas were used as negative controls and virus producing IA^b-p3K was used as the positive control. Results with a few representative virus clones are shown in FIG. 10A and 10B, and a summary of all of the results are shown in Table 1.

YAe-62 hybridoma = experiment: IL-2 production by YAe-62 T cell hybridoma in response to IA^b-peptide presenting APCs; format: cell-based, mouse; settings: for IL-2 Production (units/ml): YAe-62 hybridoma, infected SF9 cells expressing mouse ICAM and B7.1 as APCs; for difference in the amount of IL-2 production stimulated by the two peptides: SEQ ID NO:39 versus SEQ ID NO:40
Text: The mouse T cell hybridoma, referred to as YAe-62, was chosen as a representative of broadly reactive T cells present in mice carrying transgenes and gene knockouts that lead to expression of MHC Class II that are almost completely occupied by a single peptide (Ignatowicz et al., 1996, Cell 84:521-529). The T cell was produced by immunization with p3K bound to IA^b in mice that express IA^b covalently linked to Eα, a dominant IA^b binding peptide derived from the MHC Class II IEα chain. YAe-62 responds to IA^b-p3K, but not to APCs lacking MHC Class II or to the IA^b-pEα APCs from the mouse from which it was derived. YAe-62 is also reactive against many cell types bearing IA^b in the absence of p3K. It also responds to APCs from a variety of mice carrying other alleles of IA. The inventors have postulated that this T cell responds mainly to the evolutionarily conserved regions of the IA molecule with less dependence on the peptide than seen with conventional T cells (Marrack et al., 2001, J. Immunol. 167:617-621). […] From the X-ray crystal structure of IA^b (Liu et al., 2002, supra) enough was known about how peptides bind to this MHC molecule to design a strategy in which the major MHC anchor amino acids of the peptide could be held constant and only five surface exposed amino acids need be varied in the library (FIG. 8).
as §4

B3K-06 hybridoma = experiment: IL-2 production by B3K-06 T cell hybridoma in response to IA^b-peptide presenting APCs; format: cell-based, mouse; settings: for IL-2 Production (units/ml): B3K-06 hybridoma, infected SF9 cells expressing mouse ICAM and B7.1 as APCs
Text: The hybridoma, B3K-06 was produced from wild-type C57BL/6 mice immunized conventionally with the peptide (Rees et al., 1999, supra). […] Also, as is commonly seen with conventional T cells, the interaction of the αβ TcR of B3K-06 with IA^b-p3K is very sensitive to changes in any of the peptide amino acids exposed on the surface of the IA^b-p3K complex. Mutation of positions Q2, K3, K5, N7 or K8 to alanine virtually eliminates recognition of p3K by B3K-06 (Liu et al., 2002, supra and additional data not shown).
as §4

B3K-06 TCR = experiment: Binding of fluorescent soluble B3K-06 αβTCR to SF9 cells displaying IA^b-peptide (flow cytometry); set-up: species or system mouse; settings: for B3K-06 TCR Binding (% of p3K): IA^b-peptide displayed on baculovirus-infected SF9 cells, fluorescent soluble αβTCR
Procedure: as §1, §2, §3, §4

| Substance | YAe-62 TCR Binding (% of p3K) (YAe-62 TCR) | IL-2 Production (units/ml) (YAe-62 hybridoma) | further results |
| --- | --- | --- | --- |
| AGATRWCRL (listed as Mus musculus) [peptide derived from the spin protein] | – | – | restoration of the ability of LKD8 cells to stimulate the T cells (IL-2) (T cell 3DT-52.5): restored the ability of the cells to stimulate the T cells |
| F E A A L A R A V P A V (FEAALARAVPAV; synthetic peptide motif) [SEQ ID NO:33] | 23.4 % of p3K | <3 units/ml | – |
| F E A E K A K A L T A V (FEAEKAKALTAV; synthetic peptide motif) [SEQ ID NO:28] | 49.6 % of p3K | 9 units/ml | – |
| F E A E R A R A A S A V (FEAERARAASAV; synthetic peptide motif) [SEQ ID NO:36] | 2.3 % of p3K | <3 units/ml | – |
| F E A F M A R A K A A V (FEAFMARAKAAV; synthetic peptide motif) [SEQ ID NO:21] | 107.5 % of p3K | 1256 units/ml | – |
| F E A F P A K A L R A V (FEAFPAKALRAV; synthetic peptide motif) [SEQ ID NO:30] | 38.5 % of p3K | 47 units/ml | – |
| F E A H T A L A P R A V (FEAHTALAPRAV) [SEQ ID NO:23] | 80.4 % of p3K | 6 units/ml | – |
| F E A L P A R A A A A V (FEALPARAAAAV) [SEQ ID NO:22] | 70.4 % of p3K | 681 units/ml | binding of YAe-62 αβTCR to IA^b-peptide complex (in words) (YAe-62 TCR): nearly equally well; difference in the amount of IL-2 production stimulated by the two peptides (YAe-62 hybridoma): 100 fold |
| F E A L S A K A N T A V (FEALSAKANTAV; synthetic peptide motif) [SEQ ID NO:31] | 33.3 % of p3K | <3 units/ml | – |
| F E A L Y A K A L T A V (FEALYAKALTAV; synthetic peptide motif) [SEQ ID NO:19] | 98.7 % of p3K | 1717 units/ml | – |
| F E A P Y A Q A P H A V (FEAPYAQAPHAV; synthetic peptide motif) [SEQ ID NO:38] | 1.3 % of p3K | <3 units/ml | – |
| F E A Q G A L A N I A V (FEAQGALANIAV; synthetic peptide motif) [pEα, negative control, reference compound] | 0.3 % of p3K | <3 units/ml | response of YAe-62 to IA^b-peptide APCs (YAe-62 hybridoma; APCs bearing IA^b-peptide): not; IL-2 Production (units/ml) (B3K-06 hybridoma): <3 units/ml; B3K-06 TCR Binding (% of p3K) (B3K-06 TCR): 0.4 % of p3K |
| F E A Q R A R A A R A V (FEAQRARAARAV; also: tethered to IA^b) [SEQ ID NO:16] | – | – | IL-2 Production (units/ml) (B3K-06 hybridoma): 25 units/ml; stimulation of B3K-06 to produce IL-2 (in words) (B3K-06 hybridoma; bound to IA^b on B7/ICAM expressing SF9 APCs): able to stimulate B3K-06 to produce IL-2, but not nearly as well as did p3K; B3K-06 TCR Binding (% of p3K) (B3K-06 TCR): 66.8 % of p3K; binding of B3K-06 αβTCR to IA^b-peptide complex (in words) (B3K-06 TCR; insect cells displaying IA^b-peptide): only slightly less well than did the IA^b-p3K complex |
| F E A Q V A H A L P A V (FEAQVAHALPAV; synthetic peptide motif) [SEQ ID NO:29] | 48.6 % of p3K | 32 units/ml | – |
| F E A R C A K A S T A V (FEARCAKASTAV; synthetic peptide motif) [SEQ ID NO:20] | 102.5 % of p3K | 467 units/ml | – |
| F E A R E A K A L A A V (FEAREAKALAAV; synthetic peptide motif) [SEQ ID NO:32] | 27.0 % of p3K | <3 units/ml | – |
| F E A R L A S A G K A V (FEARLASAGKAV; synthetic peptide motif) [SEQ ID NO:35] | 2.6 % of p3K | <3 units/ml | – |
| F E A R T A H A R N A V (FEARTAHARNAV; synthetic peptide motif) [SEQ ID NO:37] | 1.4 % of p3K | <3 units/ml | – |
| F E A S K A S A A V A V (FEASKASAAVAV; synthetic peptide motif) [SEQ ID NO:34] | 13.0 % of p3K | <3 units/ml | – |
| F E A S L A R A R S A V (FEASLARARSAV) [SEQ ID NO:24] | 76.2 % of p3K | 5 units/ml | – |
| F E A T T A R A L T A V (FEATTARALTAV; synthetic peptide motif) [SEQ ID NO:27] | 52.0 % of p3K | 6 units/ml | – |
| F E A Y T A R A R T A V [SEQ ID NO:25] (FEAYTARARTAV) | 58.3 % of p3K | 5 units/ml | – |
| F E A Y T A R A R T A V [SEQ ID NO:26] (FEAYTARARTAV; synthetic peptide motif) | 54.9 % of p3K | 7 units/ml | – |
| FEAQTAKARGAVD (synthetic peptide motif) | – | – | binding of YAe-62 αβTCR to IA^b-peptide complex (in words) (YAe-62 TCR): nearly equally well; difference in the amount of IL-2 production stimulated by the two peptides (YAe-62 hybridoma): 100 fold |

Source: US20040110253A1, “Method for identifying MHC-presented peptide epitopes for T cells” (priority 2002, published 2004)
